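Cells were grown in 96-well plates and exposed to each compound for 48 hours at five concentrations; endpoints were interpolated linearly between bracketing concentrations, or set to the highest concentration if not reached. TGI is the concentration that stops growth completely.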
Legend:
Experiment in all cases: NCI-60 cell line screen, 48 h
786-0 renal = system: 786-0 renal
A549 NSCLC = system: A549 NSCLC
ACHN renal = system: ACHN renal
CCRF-CEM leukemia = system: CCRF-CEM leukemia
COLO 205 colon = system: COLO 205 colon
DLD-1 colon = system: DLD-1 colon
DMS 114 small cell lung = system: DMS 114 small cell lung
DMS 273 small cell lung = system: DMS 273 small cell lung
EKVX NSCLC = system: EKVX NSCLC
HCC-2998 colon = system: HCC-2998 colon
HCT-116 colon = system: HCT-116 colon
HL-60(TB) leukemia = system: HL-60(TB) leukemia
HOP-18 NSCLC = system: HOP-18 NSCLC
HOP-62 NSCLC = system: HOP-62 NSCLC
HOP-92 NSCLC = system: HOP-92 NSCLC
HT29 colon = system: HT29 colon
IGROV1 ovarian = system: IGROV1 ovarian
K-562 leukemia = system: K-562 leukemia
KM12 colon = system: KM12 colon
KM20L2 colon = system: KM20L2 colon
LOX IMVI melanoma = system: LOX IMVI melanoma
LXFL 529 NSCLC = system: LXFL 529 NSCLC
M14 melanoma = system: M14 melanoma
M19-MEL melanoma = system: M19-MEL melanoma
MALME-3M melanoma = system: MALME-3M melanoma
MOLT-4 leukemia = system: MOLT-4 leukemia
NCI-H226 lung = system: NCI-H226 lung
NCI-H23 lung = system: NCI-H23 lung
NCI-H460 lung = system: NCI-H460 lung
NCI-H522 lung = system: NCI-H522 lung
OVCAR-3 ovarian = system: OVCAR-3 ovarian
OVCAR-8 ovarian = system: OVCAR-8 ovarian
RPMI-8226 leukemia = system: RPMI-8226 leukemia
RXF 393 renal = system: RXF 393 renal
SF-268 CNS = system: SF-268 CNS
SF-295 CNS = system: SF-295 CNS
SF-539 CNS = system: SF-539 CNS
SK-MEL-2 melanoma = system: SK-MEL-2 melanoma
SK-MEL-5 melanoma = system: SK-MEL-5 melanoma
SK-OV-3 ovarian = system: SK-OV-3 ovarian
SN12C renal = system: SN12C renal
SNB-19 CNS = system: SNB-19 CNS
SNB-75 CNS = system: SNB-75 CNS
SNB-78 CNS = system: SNB-78 CNS
SW-620 colon = system: SW-620 colon
TK-10 renal = system: TK-10 renal
U251 CNS = system: U251 CNS
UACC-257 melanoma = system: UACC-257 melanoma
UACC-62 melanoma = system: UACC-62 melanoma
UO-31 renal = system: UO-31 renal
XF 498 CNS = system: XF 498 CNS
A498 renal = system: A498 renal
CAKI-1 renal = system: CAKI-1 renal
HCT-15 colon = system: HCT-15 colon
OVCAR-4 ovarian = system: OVCAR-4 ovarian
OVCAR-5 ovarian = system: OVCAR-5 ovarian
SK-MEL-28 melanoma = system: SK-MEL-28 melanoma
SR leukemia = system: SR leukemia

With `C#C[C@]1(O)CCC2C3CCc4cc(Oc5nc(F)nc(-n6c(C)nc7cc8ccccc8cc76)n5)ccc4C3CCC21C` (some centres not stated) the TGI (786-0 renal) was > 100 µM, the TGI (A549 NSCLC) was > 100 µM and the TGI (ACHN renal) was > 100 µM. The TGI (CCRF-CEM leukemia) was > 100 µM, the TGI (COLO 205 colon) was 45.8 µM and the TGI (DLD-1 colon) was > 100 µM. The TGI (DMS 114 small cell lung) was 53.8 µM, the TGI (DMS 273 small cell lung) was > 100 µM and the TGI (EKVX NSCLC) was > 100 µM. For the same compound, the TGI (HCC-2998 colon) was > 100 µM, the TGI (HCT-116 colon) was > 100 µM and the TGI (HL-60(TB) leukemia) was > 100 µM. The TGI (HOP-18 NSCLC) was > 100 µM, the TGI (HOP-62 NSCLC) was > 100 µM and the TGI (HOP-92 NSCLC) was > 100 µM. The TGI (HT29 colon) was > 100 µM, the TGI (IGROV1 ovarian) was > 100 µM and the TGI (K-562 leukemia) was > 100 µM. For the same compound, the TGI (KM12 colon) was > 100 µM, the TGI (KM20L2 colon) was > 100 µM and the TGI (LOX IMVI melanoma) was > 100 µM. For the same compound, the TGI (LXFL 529 NSCLC) was > 100 µM, the TGI (M14 melanoma) was > 100 µM and the TGI (M19-MEL melanoma) was > 100 µM. The TGI (MALME-3M melanoma) was > 100 µM, the TGI (MOLT-4 leukemia) was > 100 µM and the TGI (NCI-H226 lung) was > 100 µM. For the same compound, the TGI (NCI-H23 lung) was > 100 µM, the TGI (NCI-H460 lung) was 65.9 µM and the TGI (NCI-H522 lung) was > 100 µM. For the same compound, the TGI (OVCAR-3 ovarian) was > 100 µM, the TGI (OVCAR-8 ovarian) was > 100 µM and the TGI (RPMI-8226 leukemia) was > 100 µM. For the same compound, the TGI (RXF 393 renal) was > 100 µM, the TGI (SF-268 CNS) was > 100 µM and the TGI (SF-295 CNS) was > 100 µM. The TGI (SF-539 CNS) was > 100 µM, the TGI (SK-MEL-2 melanoma) was > 100 µM and the TGI (SK-MEL-5 melanoma) was > 100 µM. For the same compound, the TGI (SK-OV-3 ovarian) was > 100 µM, the TGI (SN12C renal) was > 100 µM and the TGI (SNB-19 CNS) was > 100 µM. The TGI (SNB-75 CNS) was > 100 µM, the TGI (SNB-78 CNS) was > 100 µM and the TGI (SW-620 colon) was > 100 µM. The TGI (TK-10 renal) was > 100 µM, the TGI (U251 CNS) was > 100 µM and the TGI (UACC-257 melanoma) was > 100 µM. The TGI (UACC-62 melanoma) was > 100 µM, the TGI (UO-31 renal) was > 100 µM and the TGI (XF 498 CNS) was > 100 µM.
For `CC1(C(=O)Nc2ccc3cc4ccccc4cc3c2)CC2(C)CC(C)(C1)C(O)NC2=O` (configuration not stated), the TGI (786-0 renal) was > 100 µM, the TGI (A498 renal) was > 100 µM and the TGI (A549 NSCLC) was > 100 µM. The TGI (ACHN renal) was > 100 µM, the TGI (CAKI-1 renal) was > 100 µM and the TGI (CCRF-CEM leukemia) was > 100 µM. For the same compound, the TGI (COLO 205 colon) was > 100 µM, the TGI (DLD-1 colon) was > 100 µM and the TGI (DMS 114 small cell lung) was > 100 µM. The TGI (DMS 273 small cell lung) was > 100 µM, the TGI (EKVX NSCLC) was > 100 µM and the TGI (HCC-2998 colon) was > 100 µM. The TGI (HCT-116 colon) was > 100 µM, the TGI (HCT-15 colon) was > 100 µM and the TGI (HL-60(TB) leukemia) was 85.8 µM. The TGI (HOP-18 NSCLC) was > 100 µM, the TGI (HOP-62 NSCLC) was > 100 µM and the TGI (HOP-92 NSCLC) was > 100 µM. For the same compound, the TGI (HT29 colon) was > 100 µM, the TGI (IGROV1 ovarian) was > 100 µM and the TGI (K-562 leukemia) was > 100 µM. For the same compound, the TGI (KM12 colon) was > 100 µM, the TGI (KM20L2 colon) was > 100 µM and the TGI (LOX IMVI melanoma) was > 100 µM. The TGI (LXFL 529 NSCLC) was > 100 µM, the TGI (M14 melanoma) was > 100 µM and the TGI (M19-MEL melanoma) was > 100 µM. For the same compound, the TGI (MALME-3M melanoma) was > 100 µM, the TGI (MOLT-4 leukemia) was > 100 µM and the TGI (NCI-H226 lung) was > 100 µM. The TGI (NCI-H23 lung) was > 100 µM, the TGI (NCI-H460 lung) was > 100 µM and the TGI (OVCAR-3 ovarian) was > 100 µM. The TGI (OVCAR-4 ovarian) was > 100 µM, the TGI (OVCAR-5 ovarian) was > 100 µM and the TGI (OVCAR-8 ovarian) was > 100 µM. The TGI (RPMI-8226 leukemia) was > 100 µM, the TGI (RXF 393 renal) was > 100 µM and the TGI (SF-268 CNS) was > 100 µM. For the same compound, the TGI (SF-295 CNS) was > 100 µM, the TGI (SF-539 CNS) was > 100 µM and the TGI (SK-MEL-2 melanoma) was > 100 µM. For the same compound, the TGI (SK-MEL-28 melanoma) was > 100 µM, the TGI (SK-MEL-5 melanoma) was > 100 µM and the TGI (SK-OV-3 ovarian) was > 100 µM. The TGI (SN12C renal) was > 100 µM, the TGI (SNB-75 CNS) was > 100 µM and the TGI (SNB-78 CNS) was > 100 µM. The TGI (SR leukemia) was > 100 µM, the TGI (SW-620 colon) was > 100 µM and the TGI (TK-10 renal) was > 100 µM. For the same compound, the TGI (U251 CNS) was > 100 µM, the TGI (UACC-257 melanoma) was > 100 µM and the TGI (UACC-62 melanoma) was > 100 µM. The TGI (UO-31 renal) was > 100 µM and the TGI (XF 498 CNS) was > 100 µM.

— PubChem BioAssay (NCI)
